# System: DNA
# Assay: Induction of DNA (unknown origin) minor groove alkylation
# Type: nucleic-acid assay, Homo sapiens
structure (smiles),measurement,value
CC(C)(C)OC(=O)Nc1ccc(C(=O)Nc2ccc3cc(C(=O)N4C[C@@H](CCl)c5c4cc(O)c4ccccc54)[nH]c3c2)cc1,IC50,0.04 nM

# — ChEMBL document CHEMBL5523744, “Recent Advances in Targeted Cancer Therapy: Are PDCs the Next Generation of ADCs?” (J Med Chem, 2024)
